Results: patent publication US20230159532A1, “PARATHYROID HORMONE (PTH) RECEPTOR ANTAGONISTS AND USES THEREOF” (Crinetics Pharmaceuticals, Inc., priority 2021, published 2023)

Target: T1, human PTHR1 receptor (Homo sapiens, UniProt Q03431)
T1 construct: purchased Eurofins HTS030M
T1 sequence (Q03431 27-593): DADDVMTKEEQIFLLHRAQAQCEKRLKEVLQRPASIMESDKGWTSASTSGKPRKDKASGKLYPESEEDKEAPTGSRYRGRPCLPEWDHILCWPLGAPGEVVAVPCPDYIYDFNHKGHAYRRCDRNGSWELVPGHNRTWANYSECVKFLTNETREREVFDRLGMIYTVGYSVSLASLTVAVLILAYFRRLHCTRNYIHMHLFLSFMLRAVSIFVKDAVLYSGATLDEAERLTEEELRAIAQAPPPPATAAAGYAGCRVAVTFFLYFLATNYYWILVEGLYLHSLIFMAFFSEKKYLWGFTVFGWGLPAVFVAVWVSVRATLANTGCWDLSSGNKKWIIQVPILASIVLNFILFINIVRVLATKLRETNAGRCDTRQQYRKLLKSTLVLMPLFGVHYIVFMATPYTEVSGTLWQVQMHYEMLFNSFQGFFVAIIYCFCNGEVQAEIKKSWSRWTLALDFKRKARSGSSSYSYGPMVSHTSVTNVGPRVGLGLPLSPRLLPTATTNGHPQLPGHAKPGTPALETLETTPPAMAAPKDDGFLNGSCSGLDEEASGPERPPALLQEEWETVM
Test: Competitive antagonist binding assay for hPTH-R1 (radioactive competition binding, SPA beads)
Details: human PTHR1 membranes, [125I]-[Nle8,18,Tyr34]-PTH(1-34) 0.2 nM, 90 minutes at room temperature; read-out: hPTHR1 Ki
Description: Competitive Antagonist Binding Assay Protocol for hPTH-R1 Antagonists:
The inhibition of binding to the human PTHR1 receptor was measured in a radioactive competition binding assay using the radiolabeled [^125I]-[NLE^8,18, TYR^34]-parathyroid hormone (1-34) ligand (PerkinElmer Cat# NEX244, custom synthesis) as the probe ligand for the receptor. Briefly, membranes from cells expressing the human PTHR1 (Eurofins Cat# HTS030M) were incubated with SPA beads (PerkinElmer Cat# RPNQ0001) in binding assay buffer [50 mM HEPES (Biopioneer Cat# C0113), 5 mM MgCl2 (Sigma Cat# M8266), 10 mM CaCl2 (Fisher Scientific Cat# BP510), 0.1% BSA (Fisher Scientific Cat# BP1600), 0.01% TritonX-100 (Bio-Rad Cat#161-0407), and protease inhibitors (Pierce Cat# A32963); pH 7.4]. Membranes bound to SPA bead were treated with various dilutions of compounds (final concentrations typically 0-10,000 nM), and 0.2 nM radiolabeled ligand in 96-well isoplates (PerkinElmer Cat#6005040) for 90 minutes at room temperature. The radioactive signal was detected using a MicroBetaTriLux 1450 LSC (PerkinElmer). All data manipulations to determine the Ki values were performed using GraphPad v8 (GraphPad, San Diego Calif.).

| Structure (SMILES) | Ki [nM] |
| --- | --- |
| CCN1C(=O)N(c2c(F)cc(NCCNCC(C)O)cc2F)c2cc(C#N)ccc2-c2cc(Cl)cnc21 (stereo not shown) [1-137, 4-chloro-10-[2,6-difluoro-4-({2-[(2-hydroxypropyl)amino]ethyl}amino)phenyl]-8-ethyl-9-oxo-6,8,10-triazatricyclo[9.4.0.0^2,7]pentadeca-1(11),2(7),3,5,12,14-hexaene-13-carbonitrile] | < 100 |
| CCN1C(=O)N(c2c(F)cc(NCCNCCN3CCNC3=O)cc2F)c2cc(C#N)ccc2-c2cc(Cl)cnc21 [1-228, 4-chloro-10-{2,6-difluoro-4-[(2-{[2-(2-oxoimidazolidin-1-yl)ethyl]amino}ethyl)amino]phenyl}-8-ethyl-9-oxo-6,8,10-triazatricyclo[9.4.0.0^2,7]pentadeca-1(11),2(7),3,5,12,14-hexaene-13-carbonitrile] | < 100 |
| CCN1C(=O)N(c2c(F)cc(NCCN)cc2F)c2cc(Cl)ccc2-c2cc(F)cnc21 [1-15, 10-{4-[(2-aminoethyl)amino]-2,6-difluorophenyl}-13-chloro-8-ethyl-4-fluoro-6,8,10-triazatricyclo[9.4.0.0^2,7]pentadeca-1(11),2(7),3,5,12,14-hexaen-9-one] | < 100 |
| CCN1C(=O)N(c2c(F)cc(NCCNC)cc2F)c2cc(C#N)cc(F)c2-c2cc(Cl)cnc21 [1-99, 4-chloro-10-(2,6-difluoro-4-{[2-(methylamino)ethyl]amino}phenyl)-8-ethyl-15-fluoro-9-oxo-6,8,10-triazatricyclo[9.4.0.0^2,7]pentadeca-1(11),2(7),3,5,12,14-hexaene-13-carbonitrile] | < 100 |
| CCN1C(=O)N(c2c(F)cc(N3CCN[C@@H](CO)C3)cc2F)c2cc(C#N)ccc2-c2cc(Cl)cnc21 [1-153, 4-chloro-10-{2,6-difluoro-4-[(3R)-3-(hydroxymethyl)piperazin-1-yl]phenyl}-8-ethyl-9-oxo-6,8,10-triazatricyclo[9.4.0.0^2,7]pentadeca-1(11),2(7),3,5,12,14-hexaene-13-carbonitrile] | < 100 |
| CCN1C(=O)N(c2c(F)cc(NCCNC[C@@H](O)CO)cc2F)c2cc(C#N)ccc2-c2cc(F)cnc21 [1-194, 10-{4-[(2-{[(2R)-2,3-dihydroxypropyl]amino}ethyl)amino]-2,6-difluorophenyl}-8-ethyl-4-fluoro-9-oxo-6,8,10-triazatricyclo[9.4.0.0^2,7]pentadeca-1(11),2(7),3,5,12,14-hexaene-13-carbonitrile] | < 100 |
| CCN1C(=O)N(c2c(F)cc(NCCNCCO)cc2F)c2cc(C#N)ncc2-c2cc(F)cnc21 [3-12, 8-[2,6-difluoro-4-({2-[(2-hydroxyethyl)amino]ethyl}amino)phenyl]-10-ethyl-14-fluoro-9-oxo-4,8,10,12-tetraazatricyclo[9.4.0.0^2,7]pentadeca-1(11),2(7),3,5,12,14-hexaene-5-carbonitrile] | < 100 |

The next lines start with the values.

| Ki [nM] | Structure (SMILES) |
| --- | --- |
| < 100 | CCN1C(=O)N(c2ccc(NCCNC)cc2F)c2cc(Cl)ccc2-c2cc(Cl)cnc21 [2-8, 4,13-dichloro-8-ethyl-10-(2-fluoro-4-{[2-(methylamino)ethyl]amino}phenyl)-6,8,10-triazatricyclo[9.4.0.0^2,7]pentadeca-1(11),2(7),3,5,12,14-hexaen-9-one] |
| < 100 | CCN1C(=O)N(c2c(F)cc(NCCNC)cc2F)c2ccccc2-c2cc(Cl)cnc21 [1-135, 4-chloro-10-(2,6-difluoro-4-{[2-(methylamino)ethyl]amino}phenyl)-8-ethyl-6,8,10-triazatricyclo[9.4.0.0^2,7]pentadeca-1(11),2(7),3,5,12,14-hexaen-9-one] |
| < 100 | CCN1C(=O)N(c2c(F)cc(NCCN[C@@H]3CC[C@@H]3O)cc2F)c2cc(C#N)ccc2-c2cc(Cl)cnc21 [1-177, 4-chloro-10-{2,6-difluoro-4-[(2-{[(1R,2S)-2-hydroxycyclobutyl]amino}ethyl)amino]phenyl}-8-ethyl-9-oxo-6,8,10-triazatricyclo[9.4.0.0^2,7]pentadeca-1(11),2(7),3,5,12,14-hexaene-13-carbonitrile] |
